According to ChEMBL document CHEMBL4257451, “Synergism of fused bicyclic 2-aminothiazolyl compounds with polymyxin B against Klebsiella pneumoniae” (Medchemcomm, 2017):

Columns and labels:
[1] = tested on: Klebsiella pneumoniae; assay: Synergistic antibacterial activity against Klebsiella pneumoniae SIPI-KPN-1712 assessed as polymixin B MIC at 4 ug/ml by broth microdilution method (reference value: 32 ug/ml); assay type: functional
[2] = tested on: Klebsiella pneumoniae; assay: Synergistic antibacterial activity against Klebsiella pneumoniae SIPI-KPN-1712 assessed as fold reduction in polymixin B MIC at 4 ug/ml by broth microdilution method relative to polymixin B alone; assay type: functional
[3] = tested on: Klebsiella pneumoniae; assay: Growth inhibition of Klebsiella pneumoniae SIPI-KPN-1712 by broth microdilution method; assay type: organism-based; settings: in vitro
[4] = tested on: Klebsiella pneumoniae; assay: Synergistic antibacterial activity against Klebsiella pneumoniae SIPI-KPN-1712 assessed as fractional Inhibitory concentration index in presence of polymixin B at 2 ug/ml by broth microdilution method; assay type: functional

SMILES	MIC [1]	fold change (FC) [2]	MIC [3]	fractional inhibitory concentration index (FICI) [4]
COC1CCCc2nc(Nc3ccc(Br)cc3)sc21 (stereo not drawn)	2 µg/mL	16	> 128 µg/mL	0.09
COC1CCCc2nc(NCc3ccccc3)sc21 (stereo not drawn)	32 µg/mL	–	> 128 µg/mL	1.03
COC1CCCc2nc(Nc3ccc(C(F)(F)F)cc3)sc21 (stereo not drawn)	8 µg/mL	–	> 128 µg/mL	0.28
COC1CCCc2nc(Nc3ccccc3C(F)(F)F)sc21 (stereo not drawn)	16 µg/mL	–	> 128 µg/mL	0.53
Clc1ccc(Nc2nc3c(s2)C(OC2CCCC2)CCC3)cc1 (stereo not drawn)	8 µg/mL	–	> 128 µg/mL	0.28
COC1CCCc2nc(Nc3cccc(C)c3)sc21 (stereo not drawn)	32 µg/mL	–	> 128 µg/mL	1.03
COC1CCCc2nc(Nc3c(F)cccc3F)sc21 (stereo not drawn)	32 µg/mL	–	> 128 µg/mL	1.03
OC1CCCc2nc(Nc3ccc(Cl)cn3)sc21 (stereo not drawn)	16 µg/mL	–	> 128 µg/mL	0.53
COC1CCCc2nc(Nc3ccc(C)cc3)sc21 (stereo not drawn)	16 µg/mL	–	> 128 µg/mL	0.53
